For this test, the target named is T1, KLK5 (Homo sapiens, UniProt Q9Y337).
T1 construct: purchased R&D Systems 1108-SE
T1 sequence (Q9Y337 23-293): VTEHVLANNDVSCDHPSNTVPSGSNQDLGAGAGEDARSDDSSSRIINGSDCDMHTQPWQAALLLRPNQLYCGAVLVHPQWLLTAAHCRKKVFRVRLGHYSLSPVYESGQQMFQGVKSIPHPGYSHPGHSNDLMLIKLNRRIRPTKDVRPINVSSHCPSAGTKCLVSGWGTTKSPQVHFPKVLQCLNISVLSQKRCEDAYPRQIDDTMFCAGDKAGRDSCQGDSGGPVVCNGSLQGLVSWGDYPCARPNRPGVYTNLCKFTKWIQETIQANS
Description: Protease activity assay: inhibition of recombinant KLK5 (Boc-VPR-AMC substrate). It is filed as biochemical. To be noted: ratio of IC50 values. How it is done: Inhibitory activity against KLK5 was evaluated using the fluorogenic substrate Boc-VPR-AMC for KLK5 (Table ). […] The P1–P1′ reactive site (Arg5 to Ser6) is critical for inhibitor binding, with the P1′ position contributing up to 50% of the total association energy. , The conserved serine at P1′ in Bowman-Birk inhibitors (BBIs) is essential for function. […] Preservation of serine in the P1′ position restored inhibitory activity seen in 5 and 6. Preserving the native serine restored efficacy to the nanomolar range (5: 31 ± 7 nM; 6: 114 ± 11 nM).
Methods for biological experiment
SFTI analogues were created by individual amino acid substitutions in PYMOL (Python Molecular Graphics System) using the existing solution NMR structure of native SFTI - 1 (1JBL) found in the RCSB (Research Collaboratory for Structural Bioinformatics) database. Residues of 2 were mutated as follows: L5R, I10H, and F12W with conserved SFTI-1 backbone structure. Other SFTI based analogues were further modified using PYMOL. Currently, there are no SFTI-1 and Kallikrein 5 co-crystal structures found in the RCSB database. Superimposing the existing crystal structure of SFTI-1 and Trypsin complex (4XOJ) with Kallikrein 5 crystal structure (2PSX) was performed with PYMOL. Ab-initio docking between KLK5 and 2 were performed with HADDOCK 2.4 1, 2, with binding active site parameter set to Arg2, Cys3, Thr4, Arg5, Ser6 for 2 and Ser195, His57, and Asp102 for KLK5 catalytic triad. PRODIGY 3-5, set at 25 °C, was used to predict dissociation constant and binding interactions of docked clusters. Structural visualization and alignment were performed with PYMOL 6, and comparative sequence analysis was performed with MEGA11 7.
A fluorescence spectrometer using SpectraMax® i3x plate reader (Molecular Devices, United States) was used to measure the relative fluorescence unit (RFU) on a 96-well black microplate (Grenier Bio-one, cat no. 655074). The wavelengths were set to 360/460 nm (excitation/emission) for the substrate Boc-VPR-AMC (Bachem AG, cat no. 4003460) and 320/405nm for the substrate Mca-RPKPVE-Nval-WRK(Dnp)-NH2 Fluorogenic MMP Substrate (R&D Systems Biotechne, cat no.ES002). The Boc-VPR-AMC stock solution was prepared by dissolving the solid form in dimethyl sulfoxide to 100 mM. Mca-RPKPVE-Nval-WRK(Dnp)-NH2 fluorogenic MMP Substrate is supplied as stock solution at 10.0 mg/mL in dimethyl sulfoxide. Boc-VPR-AMC was used as a substrate for KLK5, 8 and 14. Mca-RPKPVE-Nval-WRK(Dnp)-NH2 was used as a substrate for KLK7. The ligand-only solution serves as a negative control (minimum RFU, 100% inhibition), and enzyme-only was served as positive (maximum RFU, 0% inhibition). The activities of proteases were measured and readout against the standard curve made in serial dilutions of tested recombinant KLKs, ranging from 0nM to 60nM. Each assay was done in triplicates and repeated at least for three times […]
Assessment of analogue mediated inhibition of KLK5, KLK7, KLK8, and KLK14 […]
Recombinant KLK5 (R&D Systems, cat no. 1108-SE) was diluted to a final concentration of 10 nM in 1X PBS (pH 8.0). KLK5 was pre -incubated on ice for 1 hour with serial dilutions of SFTI-derived analogues to assess inhibitory activity. After incubation, 20 µL of each mixture was transferred to we lls of a 96-well microplate in triplicates. The enzymatic reaction was initiated by adding 100 µL of Boc -VPR-AMC substrate (final concentration 100 µM) to each well. Fluorescence (RFU) was measured using a SpectraMax® i3x plate reader with chamber temperature maintained at 37°C. Readings were started at 0 minutes (baseline) and another […]
Recombinant KLK7 (R&D Systems , cat no. 2624-SE) and KLK14 (R&D Systems, cat no. 2664-SE) were activated by adding 1 mM CaCl ₂ 0.05% v/v Brij-35 (Sigma, cat no. […]
incubated at 37°C for 1 hour. Reactions were stopped by adding EDTA to a final concentration of 50 mM (Sigma, cat no. EDS-100G) KLK8 (catalytic domain only; R&D Systems, cat no. 2025-SE-010) was activated separately with 11 nM lysyl […]

Each structure is given as a SMILES string. Bridge positions count the residues as written; N and C are the ends. Peptide text beside a SMILES is read from it.

With `C[C@@H](O)[C@@H]1NC(=O)[C@@H]2CSSC[C@H](NC(=O)[C@H](CCC(=O)O)NC(=O)[C@@H]3CCCN3C(=O)[C@@H]3CCCN3C(=O)[C@H](CC(N)=O)NC(=O)[C@H](CO)NC(=O)[C@H](CCCNC(=N)N)NC1=O)C(=O)N[C@@H](Cc1c[nH]c3ccccc13)C(=O)N1CCC[C@H]1C(=O)N[C@@H](CC(N)=O)C(=O)NCC(=O)N[C@@H](Cc1ccccc1)C(=O)N2` [compound 7] (cyclo(GFCTRSNPPECWPN); disulfide 3-11), the “increase in KLK5 inhibitory potency (IC50) compared to 2” value is on record as 4 fold and the “increase in KLK5 inhibitory potency (IC50) relative to 1” value is 16 fold.

For the origin of these results see article PMC12670400, “LEKTI-Grafted Sunflower Trypsin Inhibitor: A Potential Therapeutic for Skin Diseases” (Journal of Medicinal Chemistry, 2025).
